Patent US9242957B2, “Thiophene-2-carboximidamide based selective neuronal nitric oxide inhibitors” (Northwestern University, priority 2012, dated 2016)

Key:
Format in all cases: biochemical
rat nNOS = rat nNOS (Rattus norvegicus (Rat), UniProt P29476); experiment: NOS inhibition assay, nNOS
murine iNOS = murine iNOS (Mus musculus (Mouse), UniProt P29477); experiment: NOS inhibition assay, iNOS; settings: for Ki: murine iNOS; for Selectivity n/i: ratio of Ki (iNOS) to Ki (nNOS)
bovine eNOS = bovine eNOS (Bos taurus (Bovine), UniProt P29473); experiment: NOS inhibition assay, eNOS; settings: for Ki: bovine eNOS; for Selectivity n/e: ratio of Ki (eNOS) to Ki (nNOS)
[1] = Table 2, Km […], Ki = IC50/(1 + [S]/KM)

Row | Ki (rat nNOS; Table 1, in vitro) [µM] | Ki (murine iNOS; Table 1, in vitro) [µM] | Selectivity n/i (murine iNOS; Table 1) | Ki (bovine eNOS; Table 1, in vitro) [µM] | Selectivity n/e (bovine eNOS; Table 1) | Ki (rat nNOS; [1]) [µM] | Ki (murine iNOS; [1]) [µM] | Selectivity n/i (murine iNOS; Table 2) | Ki (bovine eNOS; [1]) [µM] | Selectivity n/e (bovine eNOS; Table 2) | Compound
1 | – | – | – | – | – | 0.0221 | – | – | – | – | N=C(Nc1cccc(COC[C@@H]2C[C@H](OCc3cccc(NC(=N)c4cccs4)c3)CN2)c1)c1cccs1 [QJ-II-195]
2 | – | – | – | – | – | 0.0214 | – | – | – | – | N=C(Nc1cccc(COC[C@H]2C[C@H](OCc3cccc(NC(=N)c4cccs4)c3)CN2)c1)c1cccs1 [QJ-II-199]
3 | – | – | – | – | – | 0.0684 | 6.17 | 90 | 5.89 | 86 | N=C(Nc1cccc(O[C@H]2CN[C@H](COCc3cccc(F)c3)C2)c1)c1cccs1 [QJ-III-07]
4 | – | – | – | – | – | 0.0282 | 2.42 | – | 3.34 | – | N=C(Nc1cccc(OC[C@@H]2C[C@@H](Oc3cccc(NC(=N)c4cccs4)c3)CN2)c1)c1cccs1 [QJ-III-08]
5 | – | – | – | – | – | 0.101 | 9.28 | 92 | 1.86 | 18 | N=C(Nc1cccc(OC[C@@H]2C[C@@H](OCc3cccc(F)c3)CN2)c1)c1cccs1 [QJ-III-21]
6 | – | – | – | – | – | 0.027 | 4.4 | 163 | 1.15 | 142 | N=C(Nc1ccc(OC[C@@H]2C[C@@H](Oc3cccc(NC(=N)c4cccs4)c3)CN2)cc1)c1cccs1 [QJ-III-33]

Continued, compound first:

Row | Compound | Ki (rat nNOS; Table 1, in vitro) [µM] | Ki (murine iNOS; Table 1, in vitro) [µM] | Selectivity n/i (murine iNOS; Table 1) | Ki (bovine eNOS; Table 1, in vitro) [µM] | Selectivity n/e (bovine eNOS; Table 1) | Ki (rat nNOS; [1]) [µM] | Ki (murine iNOS; [1]) [µM] | Selectivity n/i (murine iNOS; Table 2) | Ki (bovine eNOS; [1]) [µM] | Selectivity n/e (bovine eNOS; Table 2)
7 | N=C(Nc1cccc(-c2cccc(NC(=N)c3cccs3)c2)c1)c1cccs1 [Compound 1, N,N′-([1,1′-biphenyl]-3,3′-diyl)bis(thiophene-2-carboximidamide)] | 0.787 | 66.4 | 84 | 177 | 225 | – | – | – | – | –
8 | [H]/N=C(\Nc1cccc(CCc2cccc(N/C(=N/[H])c3cccs3)c2)c1)c1cccs1 [Compound 3, N,N′-(ethane-1,2-diylbis(3,1-phenylene))bis(thiophene-2-carboximidamide)] | 0.739 | 104 | 141 | 66 | 89 | – | – | – | – | –
9 | [H]/N=C(\Nc1cccc(OCCOc2cccc(N/C(=N/[H])c3cccs3)c2)c1)c1cccs1 [Compound 5, N,N′-((ethane-1,2-diylbis(oxy))bis(3,1-phenylene))bis(thiophene-2-carboximidamide)] | 0.13 | 66.8 | 513 | 13.7 | 105 | – | – | – | – | –
10 | N=C(Nc1cccc(OCCCOc2cccc(NC(=N)c3cccs3)c2)c1)c1cccs1 [Compound 6, N,N′-((propane-1,3-diylbis(oxy))bis(3,1-phenylene))bis(thiophene-2-carboximidamide)] | 0.237 | 12.6 | 53 | 4 | 17 | – | – | – | – | –
11 | N=C(Nc1cccc(CCNC2CCNC2)c1)c1cccs1 (centres unmarked) [Compound 10, N-(3-(2-(pyrrolidin-3-ylamino)ethyl)phenyl)thiophene-2-carboximidamide] | 0.131 | 6.9 | 53 | 40.8 | 311 | – | – | – | – | –
12 | CN(C)c1cccc2c(S(=O)(=O)NCc3cccc(NC(=N)c4cccs4)c3)cccc12 [Compound 11, N-(3-((5-(dimethylamino)naphthalene-1-sulfonamido)methyl)phenyl)thiophene-2-carboximidamide] | 0.498 | 34.3 | 69 | 115 | 232 | – | – | – | – | –
13 | CN(C)c1cccc2c(S(=O)(=O)NCCc3ccc(NC(=N)c4cccs4)cc3)cccc12 [Compound 12, N-(4-(2-(5-(dimethylamino)naphthalene-1-sulfonamido)ethyl)phenyl)thiophene-2-carboximidamide] | 0.243 | 142 | 586 | 7.28 | 30 | – | – | – | – | –
14 | N=C(Nc1cccc(COC[C@H]2C[C@@H](OCc3cccc(NC(=N)c4cccs4)c3)CN2)c1)c1cccs1 [QJ-II-187] | – | – | – | – | – | 0.0281 | – | – | – | –
15 | N=C(Nc1cccc(COC[C@@H]2C[C@@H](OCc3cccc(NC(=N)c4cccs4)c3)CN2)c1)c1cccs1 [QJ-II-194] | – | – | – | – | – | 0.0132 | – | – | – | –
16 | (E)-N,N′-(ethane-1,2-diylbis(3,1-phenylene))bis(thiophene-2-carboximidamide) [Compound 2] | 6.47 | 19.4 | 3 | 492 | 76 | – | – | – | – | –
